Experiments:
Type in all cases: functional, cell-based
[1] = tested on: BT-20; experiment: Cytotoxicity against human BT20 cells after 72 hrs by MTT assay; conditions: BT-20, 72 h
[2] = tested on: MCF7; experiment: Cytotoxicity against human MCF7 cells after 72 hrs by MTT assay; conditions: MCF7, 72 h
[3] = tested on: PC-3; experiment: Cytotoxicity against human PC3 cells after 72 hrs by MTT assay; conditions: PC-3, 72 h
[4] = tested on: MDA-MB-231; experiment: Cytotoxicity against human MDA-MB-231 cells after 72 hrs by MTT assay; conditions: MDA-MB-231, 72 h

Which results are given for `CC(=O)[C@H]1CC[C@H]2[C@@H]3CCC4=C/C(=N/NC(N)=S)CC[C@]4(C)[C@H]3CC[C@]12C`?
IC50 [1]: 5.3 µM; IC50 [2]: 20 µM; IC50 [3]: 16 µM; IC50 [4]: 25 µM

Source: ChEMBL document CHEMBL1158510, “Hybrid anticancer agents: isothiocyanate-progesterone conjugates as chemotherapeutic agents and insights into their cytotoxicities” (Bioorg Med Chem Lett, 2010)
